Molecules are shown by their SMILES. Like-named read-outs stand apart in the source and are kept apart here. Bounds are passed on as bounds.

Consider two compounds from PMC6325219, “Preclinical Characterization of NVR 3-778, a First-in-Class Capsid Assembly Modulator against Hepatitis B Virus” (Antimicrobial Agents and Chemotherapy, 2018).

The subject of assay [1] is HBV. Description: Antiviral studies using HepG2.2.15 cells (HBV DNA and HBV RNA readouts). The format is cell-based, hepatitis B virus (GT D). Particulars: for Effect on secreted HBV RNA, single drug: 6 days, increasing concentrations; for EC50: Hepatitis B virus. Here is the method:
In combination studies, cells were treated with compounds either alone or in combination after combining the compounds in a checkerboard format. In studies examining the effect of human serum, serially diluted NVR 3-778 was added into cell culture medium containing 0% to 40% human serum (BioreclamationIVT). Cells were incubated with the compounds for 3 days, after which the medium was removed, fresh medium containing the compounds was added to the cells, and the cells were incubated for another 3 days prior to harvesting of the supernatants or cells for antiviral assays. To quantify intracellular encapsidated rcDNA or encapsidated pgRNA, cells were first solubilized using lysis buffer containing 1% NP-40 and 10 mM CaCl2. The cytoplasmic fraction was then treated with S7 nuclease (6 units) to remove nonencapsidated nucleic acids, after which the S7 nuclease was inactivated by the addition of EDTA (0.5 M). […] The levels of HBV DNA were determined by a bDNA assay as described above (Affymetrix). Supernatants or cell lysates containing HBV RNA were treated with proteinase K (2.5 µg) at 50°C for 40 min, transferred to a capture plate containing HBV RNA probe sets, and hybridized overnight at 55°C. Captured HBV RNA was measured by the addition of a chemiluminescent substrate using a QuantiGene assay (Affymetrix). […] At day 6, the CellTiter-Glo reagent was added to the cells and viability was determined according to the manufacturer’s protocol (Promega). Luminescence signals were measured at 0.2 s using a Victor X4 multimode plate reader (PerkinElmer).

In the next assay the test system is HBV GT B (wild-type HBV). Description: Transient-transfection antiviral study in HepG2 cells, GT B (wild-type HBV). In kind it is cell-based, hepatitis B virus. As to conditions: for EC50: Hepatitis B virus; for EC50 FC, wild type: reference, ratio to wild-type HBV.
The test system of assay [2] is HBV. In words: Combination study of NVR 3-778 with nucleos(t)ide analogs in HepG2.2.15 cells (MacSynergy II, CalcuSyn). The format is cell-based, hepatitis B virus (GT D). As for the experimental part:
The effect of the compound combinations on cell viability was evaluated by measuring the intracellular ATP levels of HepG2.2.15 cells.
HepG2.2.15 cells were seeded in 96-well plates at a density of 40,000 cells/well and incubated with serially diluted compounds at a final DMSO concentration of 0.5%. In combination studies, cells were treated with compounds either alone or in combination after combining the compounds in a checkerboard format. In studies examining the effect of human serum, serially diluted NVR 3-778 was added into cell culture medium containing 0% to 40% human serum (BioreclamationIVT). Cells were incubated with the compounds for 3 days, after which the medium was removed, fresh medium containing the compounds was added to the cells, and the cells were incubated for another 3 days prior to harvesting of the supernatants or cells for antiviral assays. To quantify intracellular encapsidated rcDNA or encapsidated pgRNA, cells were first solubilized using lysis buffer containing 1% NP-40 and 10 mM CaCl2. The cytoplasmic fraction was then treated with S7 nuclease (6 units) to remove nonencapsidated nucleic acids, after which the S7 nuclease was inactivated by the addition of EDTA (0.5 M). To quantify extracellular HBV DNA or HBV RNA, supernatants from HepG2.2.15 cells were treated with Turbo DNase at 37°C for 60 min, followed by inactivation of DNase at 75°C for 15 min. The levels of HBV DNA were determined by a bDNA assay as described above (Affymetrix). Supernatants or cell lysates containing HBV RNA were treated with proteinase K (2.5 µg) at 50°C for 40 min, transferred to a capture plate containing HBV RNA probe sets, and hybridized overnight at 55°C. Captured HBV RNA was measured by the addition of a chemiluminescent substrate using a QuantiGene assay (Affymetrix). To determine the cytotoxicity effect of the compounds on proliferating cells, HepG2.2.15 cells were seeded in 96-well plates at a density of 10,000 cells/well and incubated with serially diluted compounds at a final DMSO concentration of 0.5% for 3 days, after which the medium was removed, fresh medium containing the compounds was added to the cells, and the cells were incubated for another 3 days. At day 6, the CellTiter-Glo reagent was added to the cells and viability was determined according to the manufacturer’s protocol (Promega). Luminescence signals were measured at 0.2 s using a Victor X4 multimode plate reader (PerkinElmer).
To determine percent inhibition, the mean background signal from wells containing only culture medium was subtracted from the signal for all other samples, and percent inhibition at each compound concentration was calculated by normalization to the signals for HepG2.2.15 cells treated with 0.5% DMSO. […] Both CalcuSyn and MacSynergy II (Ann Arbor, MI) software were used to evaluate the effect of compound combinations ([27]). After data analysis at the 95% confidence level, values of synergy or antagonism of <25 µM^2% were defined as insignificant, those between 25 and 50 µM^2% were defined as minor, those between 50 and 100 µM^2% were defined as moderate, and those of >100 µM^2% were defined as strong.

Assay [3] relates to HBV. In words: De novo infection study using PHH. In kind it is cell-based. As to conditions: Hepatitis B virus. As for the experimental part: Cryopreserved PHH (Life Technologies) were seeded at 40,000 cells/well 1 day before infection. The HBV inoculum, concentrated from the supernatants of HepG2.2.15 cells, was prepared at 200 genome equivalents/cell in PHH medium (DMEM containing 10% FBS and a supplement cocktail containing HEPES, L-proline, insulin epidermal growth factor, dexamethasone, and ascorbic acid-2-phosphate, as previously described) with 2% DMSO and 4% polyethylene glycol (PEG) 8000 (Sigma). Compounds were serially diluted in DMSO at 50-fold strength and added to PHH medium containing the HBV inoculum, prior to infecting the PHH. After overnight incubation, the infection mixtures were removed and the cells were replenished with PHH medium containing freshly diluted compounds. On day 5 and day 8 postinfection, the media containing the compounds were removed and the cells were replenished with PHH medium containing freshly diluted compounds. Supernatants and cells were harvested for antiviral and viability assays on day 11 postinfection. HBV DNA, HBsAg, and HBeAg were determined from the supernatants of infected PHH using bDNA assays (Affymetrix) and HBsAg or HBeAg chemiluminescence immunoassay kits (Autobio), as recommended by the manufacturers. Intracellular total HBV RNA mRNA and host mRNA levels were monitored by using the QuantiGene assays (Affymetrix) and probe sets that hybridized to the X region, which is common to all HBV transcripts, and the host β-actin mRNA, respectively.

Setting [4] is: in combination with NVR 3-778, HepG2.2.15 cells, 6 days, MacSynergy II, 95% confidence.
Where [5] appears, read: 264 h, PHH from three donors, compound added with inoculum, 11 days, read-out: EC50, HBV DNA.
Setting [6] is: 264 h, PHH from three donors, compound added with inoculum, 11 days, read-out: EC50, HBeAg.
Setting [7] is: 264 h, PHH from three donors, compound added with inoculum, 11 days, read-out: EC50, HBsAg.
The mark [8] stands for this setting: 264 h, PHH from three donors, compound added with inoculum, 11 days, read-out: EC50, intracellular HBV RNA.
[9] abbreviates: 264 h, PHH from three donors, compound added with inoculum, 11 days, read-out: EC90, HBV DNA.
Where [10] appears, read: 264 h, PHH from three donors, compound added with inoculum, 11 days, read-out: EC90, HBeAg.
Where [11] appears, read: 264 h, PHH from three donors, compound added with inoculum, 11 days, read-out: EC90, HBsAg.
Setting [12] is: 264 h, PHH from three donors, compound added with inoculum, 11 days, read-out: EC90, intracellular HBV RNA.
The mark [13] stands for this setting: HepG2.2.15 cells, 6 days, LMV 0.15-1.5 μM.

Experimental for HBV GT B (wild-type HBV): Cells were cotransfected with the HBV plasmids (100 ng/well) and a Gaussia expression plasmid (10 ng/well) (Thermo Scientific) using the Lipofectamine LTX Plus transfection reagent (Life Technologies). Transfection mixtures were removed after overnight incubation, and cells were treated with serially diluted NVR 3-778 at a final dimethyl sulfoxide (DMSO) concentration of 0.5%. After 3 days of incubation with the compound, the supernatants were collected and secreted Gaussia luciferase was measured using a Gaussia Flash luciferase assay kit (Thermo Scientific). […] Samples were diluted into lysis buffer (Affymetrix) containing 2.5 µg proteinase K (Affymetrix) at 50°C for 40 min. Intracellular encapsidated HBV DNA was denatured for 30 min at 25°C in 0.2 M NaOH (Sigma) and incubated with HBV DNA probes designed to hybridize to the minus-strand HBV DNA (Affymetrix). The denatured DNA was subsequently detected using a QuantiGene assay kit, according to the branched DNA (bDNA) assay recommended by the manufacturer (Affymetrix).

For orientation: EC50 means the concentration giving half of the maximal effect. As usually defined, the EC90 is the concentration needed for an effect of 90%. Regarding `Nc1ccn([C@@H]2CS[C@H](CO)O2)c(=O)n1` [LMV, lamivudine, reference compound], in the assay on HBV [1] (HepG2.2.15 cells), the “Effect on secreted HBV RNA, single drug” value is recorded as “increased the production of secreted HBV RNA”. The EC50 in the assay with HBV [1] (HepG2.2.15, values used as starting concentrations of the combination study, read-out: EC50 against HBV DNA replication in HepG2.2.15 cells) was 150 nM; with HBV GT B (wild-type HBV) (HepG2, read-out: WT EC50) it was 530 ± 120 nM; in the assay on HBV [3] (setting [5]), 16 ± 10 nM; in the assay with HBV [3] (setting [6]) it was more than 30000 nM; in the assay with HBV [3] (setting [7]), more than 30000 nM; with HBV [3] (setting [8]), more than 30000 nM. Further, in the assay on HBV GT B (wild-type HBV), the “EC50 FC, wild type” value turned out to be 1 fold. The Antagonism in the assay on HBV [2] (setting [4]) is listed as −14.3 μM^2%. Also, in the assay on HBV [2] (setting [4]), the Synergy is reported as 5.1 μM^2%. Also, the CalcuSyn-predicted effect entry in the assay with HBV [2] (in combination with NVR 3-778, based on overall CI) is on record as “Additive”. Further, the EC90 in the assay on HBV [3] (setting [9]) is 66 ± 10 nM; with HBV [3] (setting [10]), more than 30000 nM; with HBV [3] (setting [11]), more than 30000 nM; with HBV [3] (setting [12]), more than 30000 nM.

As to `O=C(Nc1cc(F)c(F)c(F)c1)c1ccc(F)c(S(=O)(=O)N2CCC(O)CC2)c1` [NVR 3-778], the “Effect on secreted HBV RNA, single drug” value in the assay with HBV [1] (HepG2.2.15 cells) is “inhibited the production of secreted HBV RNA”. Also, the EC50 in the assay with HBV [1] (HepG2.2.15 cells, QuantiGene assay, read-out: EC50, intracellular encapsidated pgRNA (mean)) was 440 nM; in the assay on HBV [1] (HepG2.2.15 cells, branched DNA assay, read-out: EC50, intracellular encapsidated rcDNA (mean)), 340 nM; with HBV [1] (HepG2.2.15 cells, supernatant, read-out: EC50, secreted HBV DNA (mean)) it was 400 nM; in the assay with HBV [1] (HepG2.2.15 cells, supernatant, read-out: EC50, secreted HBV RNA (mean)), 600 nM; in the assay on HBV GT B (wild-type HBV) (HepG2, 72 h, read-out: EC50 (mean), HBV GT B), 200 nM; with HBV GT B (wild-type HBV) (HepG2, read-out: EC50, wild type HBV) it was 230 ± 110 nM. The concentration for a half-maximal effect (EC50) was 310 ± 100 nM with HBV GT B (wild-type HBV) (HepG2, read-out: WT EC50); 810 ± 180 nM with HBV [3] (setting [5]); 4500 ± 820 nM in the assay on HBV [3] (setting [6]); 4800 ± 980 nM in the assay with HBV [3] (setting [7]); 3700 ± 220 nM with HBV [3] (setting [8]); 3700 to 4800 nM in the assay on HBV [3] (PHH, de novo infection, range over HBsAg, HBeAg, HBV RNA, read-out: EC50 values against the production of HBV antigens and intracellular HBV RNA). In addition, the “EC50 FC, wild type” value with HBV GT B (wild-type HBV) is listed as 1 fold. The “Effect of adding 0.4 μM NVR 3-778 to LMV on secreted HBV RNA” value in the assay with HBV [2] (setting [13]) is listed as “partially reversed the increase in the level of secreted HBV RNA induced by LMV”. Besides, the “Effect of adding 2 μM and 4 μM NVR 3-778 to LMV on secreted HBV RNA” value in the assay with HBV [2] (setting [13]) was “completely reverted the LMV effect”. For the same compound, the 90% effect concentration (EC90) was determined as 5400 ± 2000 nM in the assay with HBV [3] (setting [9]), 8900 ± 1200 nM in the assay on HBV [3] (setting [10]), 10200 ± 3000 nM in the assay on HBV [3] (setting [11]) and 11600 ± 2700 nM in the assay with HBV [3] (setting [12]).
